How the values were obtained:
[1] = target: Coagulation factor X (Homo sapiens, UniProt P00742); assay: Inhibition of human factor Xa using Mes-Darg-Pro-Arg-AMC as flurogenic substrate by fluorescence assay
[2] = target: Plasminogen (Homo sapiens, UniProt P00747); assay: Inhibition pf human plasmin using Mes-Darg-Phe-Arg-AMC as substrate by fluorescence assay
[3] = target: Prothrombin (Bos taurus, UniProt P00735); assay: Inhibition of bovine thrombin using Tos-Gly-Pro-Arg-AMC as substrate by fluorescence assay

Measured: Ki

Chain of Coagulation factor X (P00742 41-179 limits assumed): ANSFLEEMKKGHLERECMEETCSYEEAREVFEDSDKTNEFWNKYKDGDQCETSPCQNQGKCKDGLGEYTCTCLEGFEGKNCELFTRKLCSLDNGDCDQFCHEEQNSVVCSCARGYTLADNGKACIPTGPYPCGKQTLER
Chain of Coagulation factor X (P00742 235-488 limits assumed): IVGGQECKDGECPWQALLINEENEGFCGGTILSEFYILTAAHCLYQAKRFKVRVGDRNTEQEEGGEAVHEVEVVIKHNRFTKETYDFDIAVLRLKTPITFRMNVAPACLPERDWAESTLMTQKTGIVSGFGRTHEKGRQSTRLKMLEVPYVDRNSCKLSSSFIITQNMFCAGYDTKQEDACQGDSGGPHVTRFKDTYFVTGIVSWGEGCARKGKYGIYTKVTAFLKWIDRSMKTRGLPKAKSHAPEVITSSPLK
Chain of Plasminogen (P00747 97-580 limits assumed): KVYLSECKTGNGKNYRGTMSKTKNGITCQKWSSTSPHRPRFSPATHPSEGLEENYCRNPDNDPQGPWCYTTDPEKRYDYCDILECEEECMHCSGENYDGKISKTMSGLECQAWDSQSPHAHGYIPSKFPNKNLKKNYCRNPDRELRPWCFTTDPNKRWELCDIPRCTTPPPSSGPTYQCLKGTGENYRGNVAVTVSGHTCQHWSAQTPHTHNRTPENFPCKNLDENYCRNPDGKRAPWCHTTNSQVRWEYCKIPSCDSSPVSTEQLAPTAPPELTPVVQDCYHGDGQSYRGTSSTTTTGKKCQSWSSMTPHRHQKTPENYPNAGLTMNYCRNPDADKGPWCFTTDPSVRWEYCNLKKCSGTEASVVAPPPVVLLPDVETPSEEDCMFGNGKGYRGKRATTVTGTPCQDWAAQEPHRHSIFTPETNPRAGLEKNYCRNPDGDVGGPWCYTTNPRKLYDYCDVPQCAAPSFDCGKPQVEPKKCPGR
Chain of Plasminogen (P00747 581-810 limits assumed): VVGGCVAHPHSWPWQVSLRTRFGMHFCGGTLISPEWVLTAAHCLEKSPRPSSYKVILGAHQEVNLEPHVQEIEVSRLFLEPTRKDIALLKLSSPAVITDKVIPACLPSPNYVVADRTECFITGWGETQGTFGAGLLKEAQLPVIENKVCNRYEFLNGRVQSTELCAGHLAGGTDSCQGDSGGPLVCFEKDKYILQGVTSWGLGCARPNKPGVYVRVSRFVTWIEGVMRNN

CC(C)(C)[C@H](NC(=O)[C@H](CCONC(=N)N)NC(=O)Cc1ccc(CNC(=N)N)cc1)C(=O)N[C@@H](CCONC(=N)N)C(=O)NCc1ccc(C(=N)N)cc1
> 3000 nM: [1] | [2] | [3]

— BindingDB's records for doi:10.1021/acsmedchemlett.0c00651 (Philipps University, 2021)
